Measurements as given in PubChem BioAssay AID1963841 (Molecular Pharmacology Branch, DTP, NCI, 2024).

Test system: 439559-082-T-J2-PDC spheroid viability
Assay: Anticancer human tumor 439559-082-T-J2-PDC patient-derived colon adenocarcinoma cell line growth inhibition [POLQ]
Conditions: spheroids with HUVEC and MSC; for IC50: curve of first compound; for viability, T/C: stronger effect = lower value
Method in brief: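 Three-cell-type spheroids modelling solid tumor plus stroma served as the readout system; POL inhibitors were tested individually and in combination, concentration ranges set by clinical Cmax where known.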

[1] = second compound 0.0316 µM, first compound 0.00316 µM
[2] = second compound 0.0316 µM, first compound 0.01 µM
[3] = second compound 0.0316 µM, first compound 0.0316 µM
[4] = second compound 0.0316 µM, first compound 0.1 µM
[5] = second compound 0.0316 µM, first compound 0.316 µM
[6] = second compound 0.0316 µM, first compound 1 µM
[7] = second compound 0.1 µM, first compound 0.00316 µM
[8] = second compound 0.1 µM, first compound 0.01 µM
[9] = second compound 0.1 µM, first compound 0.0316 µM
[10] = second compound 0.1 µM, first compound 0.1 µM
[11] = second compound 0.1 µM, first compound 0.316 µM
[12] = second compound 0.1 µM, first compound 1 µM
[13] = second compound 0.316 µM, first compound 0.00316 µM
[14] = second compound 0.316 µM, first compound 0.01 µM
[15] = second compound 0.316 µM, first compound 0.0316 µM
[16] = second compound 0.316 µM, first compound 0.1 µM
[17] = second compound 0.316 µM, first compound 0.316 µM
[18] = second compound 0.316 µM, first compound 1 µM
[19] = second compound 1 µM, first compound 0.00316 µM
[20] = second compound 1 µM, first compound 0.01 µM
[21] = second compound 1 µM, first compound 0.0316 µM
[22] = second compound 1 µM, first compound 0.1 µM
[23] = second compound 1 µM, first compound 0.316 µM
[24] = second compound 1 µM, first compound 1 µM
[25] = second compound 3.16 µM, first compound 0.00316 µM
[26] = second compound 3.16 µM, first compound 0.01 µM
[27] = second compound 3.16 µM, first compound 0.0316 µM
[28] = second compound 3.16 µM, first compound 0.1 µM
[29] = second compound 3.16 µM, first compound 0.316 µM
[30] = second compound 3.16 µM, first compound 1 µM
[31] = second compound 10 µM, first compound 0.00316 µM
[32] = second compound 10 µM, first compound 0.01 µM
[33] = second compound 10 µM, first compound 0.0316 µM
[34] = second compound 10 µM, first compound 0.1 µM
[35] = second compound 10 µM, first compound 0.316 µM
[36] = second compound 10 µM, first compound 1 µM
[37] = second compound 0.0316 µM, first compound 3.16 µM
[38] = second compound 0.0316 µM, first compound 10 µM
[39] = second compound 0.1 µM, first compound 3.16 µM
[40] = second compound 0.1 µM, first compound 10 µM
[41] = second compound 0.316 µM, first compound 3.16 µM
[42] = second compound 0.316 µM, first compound 10 µM
[43] = second compound 1 µM, first compound 3.16 µM
[44] = second compound 1 µM, first compound 10 µM
[45] = second compound 3.16 µM, first compound 3.16 µM
[46] = second compound 3.16 µM, first compound 10 µM
[47] = second compound 10 µM, first compound 3.16 µM
[48] = second compound 10 µM, first compound 10 µM
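Also: spheroids exposed to compounds for seven days before readout.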
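For viability, T/C in this document: 100% = DMSO vehicle control viability.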

C=CCn1c(=O)c2cnc(Nc3ccc(N4CCN(C)CC4)cc3)nc2n1-c1cccc(C(C)(C)O)n1 + COC1C(OC(N)=O)C(O)C(Oc2ccc3c(O)c(NC(=O)c4ccc(O)c(CC=C(C)C)c4)c(=O)oc3c2C)OC1(C)C
IC50 (second compound 0.0316 µM): > 1 µM
IC50 (second compound 0.1 µM): > 1 µM
IC50 (second compound 0.316 µM): > 1 µM
IC50 (second compound 1 µM): > 1 µM
IC50 (second compound 3.16 µM): > 1 µM
IC50 (second compound 10 µM): > 1 µM
viability, T/C [1]: 98.7%
viability, T/C [2]: 104%
viability, T/C [3]: 102%
viability, T/C [4]: 101%
viability, T/C [5]: 96.1%
viability, T/C [6]: 80.7%
viability, T/C [7]: 112%
viability, T/C [8]: 106%
viability, T/C [9]: 102%
viability, T/C [10]: 102%
viability, T/C [11]: 91%
viability, T/C [12]: 79.1%
viability, T/C [13]: 102%
viability, T/C [14]: 102%
viability, T/C [15]: 105%
viability, T/C [16]: 101%
viability, T/C [17]: 94.5%
viability, T/C [18]: 86.3%
viability, T/C [19]: 106%
viability, T/C [20]: 104%
viability, T/C [21]: 100%
viability, T/C [22]: 97.3%
viability, T/C [23]: 94.8%
viability, T/C [24]: 76.3%
viability, T/C [25]: 101%
viability, T/C [26]: 101%
viability, T/C [27]: 97.2%
viability, T/C [28]: 94.6%
viability, T/C [29]: 102%
viability, T/C [30]: 85.6%
viability, T/C [31]: 100%
viability, T/C [32]: 93.8%
viability, T/C [33]: 97.9%
viability, T/C [34]: 109%
viability, T/C [35]: 94.8%
viability, T/C [36]: 72.2%

CC1COCCN1c1cc(C2(S(C)(=N)=O)CC2)nc(-c2ccnc3[nH]ccc23)n1 (stereo not drawn) + COC1C(OC(N)=O)C(O)C(Oc2ccc3c(O)c(NC(=O)c4ccc(O)c(CC=C(C)C)c4)c(=O)oc3c2C)OC1(C)C
IC50 (second compound 0.0316 µM): > 10 µM
IC50 (second compound 0.1 µM): > 10 µM
IC50 (second compound 0.316 µM): > 10 µM
IC50 (second compound 1 µM): > 10 µM
IC50 (second compound 3.16 µM): > 10 µM
IC50 (second compound 10 µM): > 10 µM
viability, T/C [3]: 97.4%
viability, T/C [4]: 98.2%
viability, T/C [5]: 94%
viability, T/C [6]: 101%
viability, T/C [37]: 89.8%
viability, T/C [38]: 65.8%
viability, T/C [9]: 100%
viability, T/C [10]: 101%
viability, T/C [11]: 105%
viability, T/C [12]: 92.6%
viability, T/C [39]: 89.7%
viability, T/C [40]: 66.4%
viability, T/C [15]: 101%
viability, T/C [16]: 91.2%
viability, T/C [17]: 93.5%
viability, T/C [18]: 94.8%
viability, T/C [41]: 90.2%
viability, T/C [42]: 67%
viability, T/C [21]: 95%
viability, T/C [22]: 99.3%
viability, T/C [23]: 91.7%
viability, T/C [24]: 86.6%
viability, T/C [43]: 88.8%
viability, T/C [44]: 66.8%
viability, T/C [27]: 94.7%
viability, T/C [28]: 96.7%
viability, T/C [29]: 89.7%
viability, T/C [30]: 90.8%
viability, T/C [45]: 87.2%
viability, T/C [46]: 64%
viability, T/C [33]: 99.7%
viability, T/C [34]: 97.4%
viability, T/C [35]: 103%
viability, T/C [36]: 89.4%
viability, T/C [47]: 86.1%
viability, T/C [48]: 63.9%

CNCc1ccc(-c2[nH]c3cc(F)cc4c3c2CCNC4=O)cc1 + COC1C(OC(N)=O)C(O)C(Oc2ccc3c(O)c(NC(=O)c4ccc(O)c(CC=C(C)C)c4)c(=O)oc3c2C)OC1(C)C
IC50 (second compound 0.0316 µM): > 10 µM
IC50 (second compound 0.1 µM): > 10 µM
IC50 (second compound 0.316 µM): > 10 µM
IC50 (second compound 1 µM): > 10 µM
IC50 (second compound 3.16 µM): > 10 µM
IC50 (second compound 10 µM): > 10 µM
viability, T/C [3]: 103%
viability, T/C [4]: 98.7%
viability, T/C [5]: 99.4%
viability, T/C [6]: 101%
viability, T/C [37]: 106%
viability, T/C [38]: 102%
viability, T/C [9]: 101%
viability, T/C [10]: 107%
viability, T/C [11]: 91.7%
viability, T/C [12]: 99.7%
viability, T/C [39]: 105%
viability, T/C [40]: 108%
viability, T/C [15]: 104%
viability, T/C [16]: 96%
viability, T/C [17]: 98.3%
viability, T/C [18]: 108%
viability, T/C [41]: 110%
viability, T/C [42]: 105%
viability, T/C [21]: 108%
viability, T/C [22]: 103%
viability, T/C [23]: 106%
viability, T/C [24]: 98.1%
viability, T/C [43]: 111%
viability, T/C [44]: 108%
viability, T/C [27]: 108%
viability, T/C [28]: 103%
viability, T/C [29]: 97.4%
viability, T/C [30]: 95.8%
viability, T/C [45]: 114%
viability, T/C [46]: 105%
viability, T/C [33]: 99.5%
viability, T/C [34]: 93.7%
viability, T/C [35]: 95.4%
viability, T/C [36]: 104%
viability, T/C [47]: 115%
viability, T/C [48]: 98.4%

COc1cccc(OCCCN)c1-c1cc(Nc2cnc(C#N)cn2)n[nH]1 + COC1C(OC(N)=O)C(O)C(Oc2ccc3c(O)c(NC(=O)c4ccc(O)c(CC=C(C)C)c4)c(=O)oc3c2C)OC1(C)C
IC50 (second compound 0.0316 µM): 0.142 µM
IC50 (second compound 0.1 µM): 0.158 µM
IC50 (second compound 0.316 µM): 0.145 µM
IC50 (second compound 1 µM): 0.109 µM
IC50 (second compound 3.16 µM): 0.133 µM
IC50 (second compound 10 µM): 0.128 µM
viability, T/C [1]: 87%
viability, T/C [2]: 88.1%
viability, T/C [3]: 70.1%
viability, T/C [4]: 61.4%
viability, T/C [5]: 31.3%
viability, T/C [6]: 17.4%
viability, T/C [7]: 98.5%
viability, T/C [8]: 82%
viability, T/C [9]: 76.4%
viability, T/C [10]: 65.3%
viability, T/C [11]: 30.9%
viability, T/C [12]: 18.3%
viability, T/C [13]: 94.6%
viability, T/C [14]: 90.3%
viability, T/C [15]: 72.3%
viability, T/C [16]: 62%
viability, T/C [17]: 31.7%
viability, T/C [18]: 19.1%
viability, T/C [19]: 105%
viability, T/C [20]: 82.1%
viability, T/C [21]: 72.6%
viability, T/C [22]: 52.9%
viability, T/C [23]: 31.8%
viability, T/C [24]: 16.4%
viability, T/C [25]: 102%
viability, T/C [26]: 85.6%
viability, T/C [27]: 73.6%
viability, T/C [28]: 59.1%
viability, T/C [29]: 30.9%
viability, T/C [30]: 18.2%
viability, T/C [31]: 103%
viability, T/C [32]: 86.8%
viability, T/C [33]: 77%
viability, T/C [34]: 56.4%
viability, T/C [35]: 30.5%
viability, T/C [36]: 17.5%
